Each block holds one molecule with its values, some of them ahead of it.
Tests used:
[1] = Measurement of fluorescence quantum yield (Rhodamine B in ethanol as reference); assay type: physicochemical
[2] = target: bovine serum albumin (BSA) (Bos taurus, UniProt P02769); experiment: Titration of dye solution with BSA, fluorescence and UV absorption; assay type: binding; settings: dye solution 1 μM, PBS pH 7.4
Procedure: (§1) The solutions of compounds Ha to IIc in a concentration of 1×10^−6M (10 mM PBS buffer (pH=7.4) was used as solvent) was prepared, and 3 ml of the each dye solution was added into a cuvette, respectively. Then, an aqueous bovine serum albumin (BSA) stock solution with the concentration of 50 μg/μL (750 μM) was added dropwise into each of the dye solution. The fluorescence intensity of the dye was measured each 5 minutes after addition of BSA for fluorescence becoming stable, on UV-visible spectrophotometer (Mode: Hp8453) and fluorescence spectrophotometer (Mode: FP-6500).
Especially for dyes IIb and IIc, the fluorescence intensity thereof was increased linearly with addition of BSA to arrive at more than 30 folds.

[3] = Absorption and emission spectra of dyes in different solvents; assay type: physicochemical; set-up: key to Δλ1 / Δλ2: Stokes shift in nm; ε1 (molar extinction coefficient) / ε2 (molar extinction coefficient): scale not given here; settings: for Δλ1: Stokes shift to absorption peak 1; for Δλ2: Stokes shift to absorption peak 2
Source text: In the present invention, compounds IIa to IIg were synthesized based on compound II, and their spectral properties were investigated. Compared with the traditional pentamethine cyanine dye, for the novel pentamethine cyanine dye with N-substituting at β-position (deviated position), it was observed that, evident blue shift of absorption and emission wavelengths occurred, absorption wavelength blue shifted even largely than that of emission wavelength, absorption spectrum and fluorescence spectrum were no longer mirror-symmetric and had two absorption peaks and a single emission peak, and larger Stokes shift (minimum 60 and 150 nm, and maximum 90 and 230 nm) appeared.

calf thymus DNA (ct-DNA) = experiment: Titration of dye solution with calf thymus DNA, fluorescence and UV absorption; assay type: binding; settings: dye 1×10^−6 M, PBS pH 7.4
Procedure: as §1, with “cuvette separately.” for “cuvette, respectively.”, “calf thymus DNA” for “bovine serum albumin (BSA)”, “was prepared,” for “with”, “the calf thymus DNA stock solution was determined as 1.5×10^−3 mM by the absorbance at 260 nm on UV absorption spectrophotometer. The calf thymus DNA stock solution” for “50 μg/μL (750 μM)”
From the interaction results of three dyes with calf thymus DNA, it can be known that no evident fluorescence increase was found after the interaction of the dye with the DNA. FIGS. 4 and 5 were titration figures of the interaction of dye lib with calf thymus DNA. […] All of these indicated DNA could be differentiated from protein by dyes IIa, IIb and IIc.

Chain of bovine serum albumin (BSA) (P02769 25-607): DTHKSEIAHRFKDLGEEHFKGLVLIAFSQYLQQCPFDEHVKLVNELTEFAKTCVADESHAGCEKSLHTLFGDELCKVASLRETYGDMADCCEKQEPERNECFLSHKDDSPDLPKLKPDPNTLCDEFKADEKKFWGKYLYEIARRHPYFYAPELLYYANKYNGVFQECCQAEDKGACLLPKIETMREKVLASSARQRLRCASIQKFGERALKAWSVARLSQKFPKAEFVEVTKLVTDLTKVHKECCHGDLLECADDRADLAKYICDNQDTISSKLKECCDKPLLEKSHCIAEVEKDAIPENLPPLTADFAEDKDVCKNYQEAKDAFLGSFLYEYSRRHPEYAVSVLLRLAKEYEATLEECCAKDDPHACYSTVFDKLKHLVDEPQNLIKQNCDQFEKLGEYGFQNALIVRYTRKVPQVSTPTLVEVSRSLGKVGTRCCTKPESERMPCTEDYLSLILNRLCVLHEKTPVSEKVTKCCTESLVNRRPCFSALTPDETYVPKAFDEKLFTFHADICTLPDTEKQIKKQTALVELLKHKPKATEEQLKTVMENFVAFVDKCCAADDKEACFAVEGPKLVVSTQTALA

Φ1 (fluorescence quantum yield) ([1]; solvent DCM): 0.124 | Φ2 (fluorescence quantum yield) ([1]; solvent DCM): 0.061 | Φ1 (fluorescence quantum yield) ([1]; solvent DMSO): 0.005 | Φ2 (fluorescence quantum yield) ([1]; solvent DMSO): 0.005 | Φ1 (fluorescence quantum yield) ([1]; solvent Ethanol): 0.014 | Φ2 (fluorescence quantum yield) ([1]; solvent Ethanol): 0.013 | Φ1 (fluorescence quantum yield) ([1]; solvent Methanol): 0.007 | Φ2 (fluorescence quantum yield) ([1]; solvent Methanol): 0.008 | Φ1 (fluorescence quantum yield) ([1]; solvent THF): 0.109 | Φ2 (fluorescence quantum yield) ([1]; solvent THF): 0.099 | Φ1 (fluorescence quantum yield) ([1]; solvent Water): 0.001 | Φ2 (fluorescence quantum yield) ([1]; solvent Water): 0.001 | change of fluorescence intensity by interaction with protein (BSA) [2]: largely increased | Δλ1 ([3]; solvent DCM): 96 | Δλ1 ([3]; solvent DMSO): 97 | Δλ1 ([3]; solvent Ethanol): 97 | Δλ1 ([3]; solvent Methanol): 97 | Δλ1 ([3]; solvent THF): 88 | Δλ1 ([3]; solvent Water): 98 | Δλ2 ([3]; solvent DCM): 168 | Δλ2 ([3]; solvent DMSO): 154 | Δλ2 ([3]; solvent Ethanol): 167 | Δλ2 ([3]; solvent Methanol): 169 | Δλ2 ([3]; solvent THF): 155 | Δλ2 ([3]; solvent Water): 168 | ε1 (molar extinction coefficient) ([3]; solvent DCM): 2.8 cm^−1M | ε2 (molar extinction coefficient) ([3]; solvent DCM): 2.1 cm^−1M | λabs1 ([3]; solvent DCM): 526 nm | λbs2 ([3]; solvent DCM): 454 nm | λem ([3]; solvent DCM): 622 nm | ε1 (molar extinction coefficient) ([3]; solvent DMSO): 2.5 cm^−1M | ε2 (molar extinction coefficient) ([3]; solvent DMSO): 2.1 cm^−1M | λabs1 ([3]; solvent DMSO): 515 nm | λbs2 ([3]; solvent DMSO): 458 nm | λem ([3]; solvent DMSO): 612 nm | ε1 (molar extinction coefficient) ([3]; solvent Ethanol): 2.8 cm^−1M | ε2 (molar extinction coefficient) ([3]; solvent Ethanol): 2.3 cm^−1M | λabs1 ([3]; solvent Ethanol): 521 nm | λbs2 ([3]; solvent Ethanol): 451 nm | λem ([3]; solvent Ethanol): 618 nm | ε1 (molar extinction coefficient) ([3]; solvent Methanol): 3.1 cm^−1M | ε2 (molar extinction coefficient) ([3]; solvent Methanol): 2.2 cm^−1M | λabs1 ([3]; solvent Methanol): 522 nm | λbs2 ([3]; solvent Methanol): 450 nm | λem ([3]; solvent Methanol): 619 nm | ε1 (molar extinction coefficient) ([3]; solvent THF): 3.1 cm^−1M | ε2 (molar extinction coefficient) ([3]; solvent THF): 1.9 cm^−1M | λabs1 ([3]; solvent THF): 517 nm | λbs2 ([3]; solvent THF): 450 nm | λem ([3]; solvent THF): 605 nm | ε1 (molar extinction coefficient) ([3]; solvent Water): 1.8 cm^−1M | ε2 (molar extinction coefficient) ([3]; solvent Water): 1.9 cm^−1M | λabs1 ([3]; solvent Water): 517 nm | λbs2 ([3]; solvent Water): 447 nm | λem ([3]; solvent Water): 615 nm
SMILES: CCN1/C(=C/C=C/C(=C/C2=[N+](CC)c3ccccc3C2(C)C)N(CCO)CCO)C(C)(C)c2ccccc21 [Dye IIc]
change of fluorescence by interaction with ct-DNA (calf thymus DNA (ct-DNA)): little fluorescence increase

Φ1 (fluorescence quantum yield) ([1]; solvent DCM): 0.114 | Φ2 (fluorescence quantum yield) ([1]; solvent DCM): 0.100 | Φ1 (fluorescence quantum yield) ([1]; solvent DMSO): 0.009 | Φ2 (fluorescence quantum yield) ([1]; solvent DMSO): 0.008 | Φ1 (fluorescence quantum yield) ([1]; solvent Ethanol): 0.019 | Φ2 (fluorescence quantum yield) ([1]; solvent Ethanol): 0.017 | Φ1 (fluorescence quantum yield) ([1]; solvent Methanol): 0.009 | Φ2 (fluorescence quantum yield) ([1]; solvent Methanol): 0.008 | Φ1 (fluorescence quantum yield) ([1]; solvent THF): 0.085 | Φ2 (fluorescence quantum yield) ([1]; solvent THF): 0.075 | Φ1 (fluorescence quantum yield) ([1]; solvent Water): 0.002 | Φ2 (fluorescence quantum yield) ([1]; solvent Water): 0.002 | change of fluorescence intensity by interaction with protein (BSA) [2]: largely increased | Δλ1 ([3]; solvent DCM): 79 | Δλ1 ([3]; solvent DMSO): 91 | Δλ1 ([3]; solvent Ethanol): 91 | Δλ1 ([3]; solvent Methanol): 89 | Δλ1 ([3]; solvent THF): 82 | Δλ1 ([3]; solvent Water): 103 | Δλ2 ([3]; solvent DCM): 167 | Δλ2 ([3]; solvent DMSO): 170 | Δλ2 ([3]; solvent Ethanol): 177 | Δλ2 ([3]; solvent Methanol): 175 | Δλ2 ([3]; solvent THF): 158 | Δλ2 ([3]; solvent Water): 190 | ε1 (molar extinction coefficient) ([3]; solvent DCM): 3.4 cm^−1M | ε2 (molar extinction coefficient) ([3]; solvent DCM): 1.7 cm^−1M | λabs1 ([3]; solvent DCM): 517 nm | λbs2 ([3]; solvent DCM): 429 nm | λem ([3]; solvent DCM): 596 nm | ε1 (molar extinction coefficient) ([3]; solvent DMSO): 3.0 cm^−1M | ε2 (molar extinction coefficient) ([3]; solvent DMSO): 2.3 cm^−1M | λabs1 ([3]; solvent DMSO): 515 nm | λbs2 ([3]; solvent DMSO): 436 nm | λem ([3]; solvent DMSO): 606 nm | ε1 (molar extinction coefficient) ([3]; solvent Ethanol): 3.3 cm^−1M | ε2 (molar extinction coefficient) ([3]; solvent Ethanol): 2.3 cm^−1M | λabs1 ([3]; solvent Ethanol): 521 nm | λbs2 ([3]; solvent Ethanol): 435 nm | λem ([3]; solvent Ethanol): 612 nm | ε1 (molar extinction coefficient) ([3]; solvent Methanol): 3.1 cm^−1M | ε2 (molar extinction coefficient) ([3]; solvent Methanol): 2.4 cm^−1M | λabs1 ([3]; solvent Methanol): 519 nm | λbs2 ([3]; solvent Methanol): 433 nm | λem ([3]; solvent Methanol): 608 nm | ε1 (molar extinction coefficient) ([3]; solvent THF): 3.6 cm^−1M | ε2 (molar extinction coefficient) ([3]; solvent THF): 2.2 cm^−1M | λabs1 ([3]; solvent THF): 503 nm | λbs2 ([3]; solvent THF): 427 nm | λem ([3]; solvent THF): 585 nm | ε1 (molar extinction coefficient) ([3]; solvent Water): 2.1 cm^−1M | ε2 (molar extinction coefficient) ([3]; solvent Water): 1.7 cm^−1M | λabs1 ([3]; solvent Water): 517 nm | λbs2 ([3]; solvent Water): 430 nm | λem ([3]; solvent Water): 620 nm
SMILES: CCN1/C(=C/C=C/C(=C/C2=[N+](CC)c3ccccc3C2(C)C)NCCO)C(C)(C)c2ccccc21 [Dye IIb]
change of fluorescence by interaction with ct-DNA (calf thymus DNA (ct-DNA)): little fluorescence increase

Φ1 (fluorescence quantum yield) ([1]; solvent DCM): 0.115 | Φ2 (fluorescence quantum yield) ([1]; solvent DCM): 0.032 | Φ1 (fluorescence quantum yield) ([1]; solvent DMSO): 0.020 | Φ2 (fluorescence quantum yield) ([1]; solvent DMSO): 0.009 | Φ1 (fluorescence quantum yield) ([1]; solvent Ethanol): 0.014 | Φ2 (fluorescence quantum yield) ([1]; solvent Ethanol): 0.009 | Φ1 (fluorescence quantum yield) ([1]; solvent Methanol): 0.007 | Φ2 (fluorescence quantum yield) ([1]; solvent Methanol): 0.004 | Φ1 (fluorescence quantum yield) ([1]; solvent THF): 0.053 | Φ2 (fluorescence quantum yield) ([1]; solvent THF): 0.008 | Φ1 (fluorescence quantum yield) ([1]; solvent Water): 0.002 | Φ2 (fluorescence quantum yield) ([1]; solvent Water): 0.001 | change of fluorescence intensity by interaction with protein (BSA) ([2]; listed as Ha): largely increased | Δλ1 ([3]; solvent DCM): 63 | Δλ1 ([3]; solvent DMSO): 75 | Δλ1 ([3]; solvent Ethanol): 75 | Δλ1 ([3]; solvent Methanol): 78 | Δλ1 ([3]; solvent THF): 64 | Δλ1 ([3]; solvent Water): 92 | Δλ2 ([3]; solvent DCM): 191 | Δλ2 ([3]; solvent DMSO): 189 | Δλ2 ([3]; solvent Ethanol): 182 | Δλ2 ([3]; solvent Methanol): 188 | Δλ2 ([3]; solvent THF): 182 | Δλ2 ([3]; solvent Water): 203 | ε1 (molar extinction coefficient) ([3]; solvent DCM): 5.4 cm^−1M | ε2 (molar extinction coefficient) ([3]; solvent DCM): 1.6 cm^−1M | λabs1 ([3]; solvent DCM): 546 nm | λbs2 ([3]; solvent DCM): 418 nm | λem ([3]; solvent DCM): 609 nm | ε1 (molar extinction coefficient) ([3]; solvent DMSO): 4.9 cm^−1M | ε2 (molar extinction coefficient) ([3]; solvent DMSO): 1.7 cm^−1M | λabs1 ([3]; solvent DMSO): 533 nm | λbs2 ([3]; solvent DMSO): 419 nm | λem ([3]; solvent DMSO): 608 nm | ε1 (molar extinction coefficient) ([3]; solvent Ethanol): 4.8 cm^−1M | ε2 (molar extinction coefficient) ([3]; solvent Ethanol): 2.0 cm^−1M | λabs1 ([3]; solvent Ethanol): 527 nm | λbs2 ([3]; solvent Ethanol): 420 nm | λem ([3]; solvent Ethanol): 602 nm | ε1 (molar extinction coefficient) ([3]; solvent Methanol): 5.1 cm^−1M | ε2 (molar extinction coefficient) ([3]; solvent Methanol): 2.0 cm^−1M | λabs1 ([3]; solvent Methanol): 528 nm | λbs2 ([3]; solvent Methanol): 418 nm | λem ([3]; solvent Methanol): 606 nm | ε1 (molar extinction coefficient) ([3]; solvent THF): 4.8 cm^−1M | ε2 (molar extinction coefficient) ([3]; solvent THF): 1.6 cm^−1M | λabs1 ([3]; solvent THF): 526 nm | λbs2 ([3]; solvent THF): 408 nm | λem ([3]; solvent THF): 590 nm | ε1 (molar extinction coefficient) ([3]; solvent Water): 3.6 cm^−1M | ε2 (molar extinction coefficient) ([3]; solvent Water): 1.7 cm^−1M | λabs1 ([3]; solvent Water): 527 nm | λbs2 ([3]; solvent Water): 416 nm | λem ([3]; solvent Water): 619 nm
SMILES: CCN1/C(=C/C=C/C(N)=C/C2=[N+](CC)c3ccccc3C2(C)C)C(C)(C)c2ccccc21 [Dye IIa]
change of fluorescence by interaction with ct-DNA (calf thymus DNA (ct-DNA); listed as Ha): little fluorescence increase
